In paper PMC9966268, “Genotoxicity of Novel Pyrazolo[4,3-e]tetrazolo[1,5-b][1,2,4]triazine Sulfonamides in Normal and Cancer Cells In Vitro” (International Journal of Molecular Sciences, 2023):

Experiments:
BxPC-3 [1] = experiment: Neutral comet assay; type: cell-based, human; conditions: human, 24 h
Protocol: The majority of the neutral comet assay steps were performed analogously to the alkaline version except for the electrophoresis step. In contrast to the alkaline comet assay, electrophoresis was performed in a buffer comprising 100 mM TRIS and 300 mM sodium acetate with the pH of the solution adjusted to 9.0 by glacial acetic acid, as described previously by Bukowski et al.. Electrophoresis was run at 12 V, 50 mA for 60 min. Cells were washed with distilled water twice, stained with DAPI, and analyzed as described for the alkaline comet assay.
CASP: Comet Assay Software Project Lab (http://casplab.com (accessed on 1 January 2023)) was used to establish the median value of DNA (%) in comet tails. This parameter provides a very clear picture of what the actual appearance of the comets was like. […] The data were presented with an interquartile range and minimal and maximal values using Graphpad Prism 7. Statistical analysis of comet assay results was performed using Statistica software. The Kruskal–Wallis test was used to show a statistically significant difference between groups. Multiple comparisons using mean ranks for all groups module of Statistica software were used. A p-value less than 0.05 was considered statistically significant. In all groups, N > 200.

PC-3 [2] = test system: PC-3; set-up: method as in PMID 35682571; conditions: PC-3, 72 h incubation, MTT assay, mean; read-out: IC50 Value ± SD; cited from earlier work
WI-38 [3] = experiment: Alkaline comet assay; type: cell-based, human; conditions: WI-38, alkaline
Protocol: The alkaline version of the comet assay was performed according to Singh et al. (1988), with modifications. BxPC-3 and PC-3 cancer cells and normal human fibroblasts (WI-38) were seeded at a density of 1.2 × 10^5/mL onto 12-well plates. […] The experimental design included negative controls (cells treated with DMSO at 0.4% for 24 h at 37 °C). Cells were left for incubation for another 24 h (37 °C; 5% CO2). After exposure, they were transferred to Eppendorf tubes and centrifuged at 1400 rpm for 10 min at 4 °C. Afterward, the supernatant was removed, and the precipitate was diluted in PBS. The next steps were performed as previously described by Kontek and Nowicka.
After electrophoresis (conditions: 12 V, 300 mA, 25 min), slides were stained with 1 µg/mL of the intercalating agent 4′,6-diamidino-2-phenylindole (DAPI) and coverslipped. DNA damage was assessed with a fluorescence microscope at 360 nm using CellSens (Olympus) software. A total number of approximately 50 cells per slide was chosen for further analysis.
[…] This parameter provides a very clear picture of what the actual appearance of the comets was like. […] The data were presented with an interquartile range and minimal and maximal values using Graphpad Prism 7. Statistical analysis of comet assay results was performed using Statistica software. The Kruskal–Wallis test was used to show a statistically significant difference between groups. Multiple comparisons using mean ranks for all groups module of Statistica software were used. A p-value less than 0.05 was considered statistically significant. In all groups, N > 200.

BxPC-3 [4] = test system: BxPC-3; set-up: method as in PMID 35682571; conditions: BxPC-3, 72 h incubation, MTT assay, mean; read-out: IC50 Value ± SD; cited from earlier work
PC-3 [5] = experiment: Trypan blue staining; type: cell-based, human; conditions: PC-3, 0.5, 1 and 2 × IC50, 24 h, 37 °C
Protocol: (§1) Trypan blue is a diazo dye that has been used for viability assessment for years. Viable cells with undamaged cellular membranes are resistant to staining and thus allow the discrimination from blue-stained dead cells with disrupted membranes. Cells were seeded at a density of 1.5 × 10^5/mL onto 12-well plates. […] Cells were left for incubation for another 24 h (37 °C; 5% CO2). After exposure, they were transferred to Eppendorf tubes and centrifuged at 1400 rpm for 10 min at 4 °C. Afterward, the supernatant was removed, and the precipitate was diluted in PBS. Cell suspensions were mixed with 0.4% trypan blue solution in a 1:1 ratio. Approximately 300 cells were counted under a light microscope. The experiment was repeated three times. The results were represented as mean viability (%) with SD values.

BxPC-3 [6] = experiment: Trypan blue staining; type: cell-based, human; conditions: BxPC-3, 0.5, 1 and 2 × IC50, 24 h, 37 °C
Protocol: as §1

WI-38 [7] = experiment: Trypan blue staining; type: cell-based, human; conditions: WI-38, 0.5, 1 and 2 × IC50, 24 h, 37 °C
Protocol: as §1

PC-3 [8] = experiment: γH2AX staining; type: cell-based, human; conditions: PC-3, IC50 concentration, 24 h, foci per cell
Protocol: PC-3 cells were seeded at a density of 3 × 10^4/mL onto round coverslips placed on the bottom of 12-well plates. […] After 24 h, cells were washed once with cold PBS and placed in 4% paraformaldehyde (PHA) in PBS for 10 min. at room temperature. After that, PHA was removed, and cells were permeabilized using 0.1% Triton X-100 for 10 min at 20 °C, followed by incubation in a blocking solution (1 mL/well) containing 2.5% BSA, 1.5% goat serum, and 0.1% Triton X-100 in PBS for 10 min at room temperature. The blocking solution was removed, and coverslips containing cells were incubated with anti-γ-H2AX primary antibodies in blocking solution (anti-gamma-H2AX (phosphor-Ser139) (Abcam, Cambridge, UK; 1:100)) for 1 h at room temperature. Cells were transferred into 12-well plates, washed twice in PBS (5 min each), transferred to plates, and incubated with Goat anti-Mouse IgG Cross-adsorbed antibody, Alexa Fluor 488 (Invitrogen; 1:500 in PBS) for 1 h at room temperature. Cells were washed twice in PBS, followed by incubation with DAPI solution (1 µg/mL) for 10 min at room temperature and two washes in PBS and distilled water. Coverslips were removed using tweezers and placed on microscope slides with a drop of Fluoromount-G mounting medium. The slides were placed flat at room temperature for 24 h and then stored at 4 °C. The slides were analyzed with a fluorescence microscope using CellSens (Olympus) software. A total number of approximately 100 cells per slide was chosen for further analysis. The experiment was performed in duplicate. In BxPC-3 cells, inefficient or non-specific staining was observed despite attempts to optimize the assay. Therefore, we discontinued further work on these cells with the assay.
Images for green γ-H2AX (Alexa Fluor 488) and blue nuclear signals (DAPI) were taken using an Olympus camera. ImageJ software “find maxima” and “count” functions were used to determine the number of γ-H2AX foci in each cell. The “preview point selection” option and “prominence” were chosen based on the accuracy of coverage of γ-H2AX foci. Data were analyzed using GraphPad Prism 7.0 software system (GraphPad Prism Software Inc., USA) and Statistica software. The Kruskal–Wallis test was used to show a statistically significant difference between groups. Multiple comparisons using mean ranks for all groups module of Statistica software were used. A p-value less than 0.05 was considered statistically significant (p < 0.05). In all groups, N > 200.

For `Cc1nn(-c2ccc(S(=O)(=O)NCCN3CCOCC3)cc2)c2nn3nnnc3nc12` [MM134], the “mean tail DNA % (double-strand breaks)” value (BxPC-3 [1]) is given as 5.11%, the “median tail DNA % (double-strand breaks)” value (BxPC-3 [1]) is given as 4.21% and the IC50 (PC-3 [2]) is given as 160 ± 20 nM. For the same compound, the “DNA damage compared with negative and positive control (in words)” value (WI-38 [3]; 0.5 × IC50, IC50, 2 × IC50, 24 h, p < 0.05) was “statistically significant increase in DNA damage”, the “mean tail DNA %” value (WI-38 [3]; IC50 concentration, 24 h) was 4.19% and the “median tail DNA %” value (WI-38 [3]; IC50 concentration, 24 h) was 1.5%. For the same compound, the IC50 (BxPC-3 [4]) was 320 ± 100 nM, the cell viability (PC-3 [5]) was “highest reduction in cell viability” and the cell viability (BxPC-3 [6]) was “highest reduction in cell viability”. The cell viability (WI-38 [7]) was “highest reduction in cell viability”, the “mean number of γH2AX foci” value (PC-3 [8]) was 25.8 and the “median number of γH2AX foci” value (PC-3 [8]) was 21.
